# Experimental data published in patent publication US20240158392A1 (Janssen Biotech, Inc., priority 2021, published 2024).
# pIC50: −log10 of the molar value.
# How the values were obtained:
# SIK2 [1] = molecular target: T1, SIK2 (Homo sapiens, UniProt Q9H0K1); assay: SIK2 Enzymatic Assay Version 1 (ADP Glo); format: biochemical; details: enzyme 0.6 nM, 160 μM ATP and 140 μM HDAC5tide (each 2× final concentration); 30 minutes pre-incubation, 4 hours; ADPGlo luminescence; read-out: SIK2 ADP Glo IC50 (μM) (Test Example 1)
# In short: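 Room-temperature ADP-Glo luminescence assay; SIK2 added at 0.6 nM (2× final) and preincubated with compound for 30 min. Reaction stopped with ADP-Glo Reagent for 40 min, then detection reagent for at least 30 min; no-peptide (ATP-only) wells served as negative control.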
# SIK2 [2] = molecular target: T1, SIK2; assay: SIK2 Enzymatic Assay High Version 2 (High ATP); format: biochemical
# In short: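 At room temperature, enzyme (6 nM, 2× final) was preincubated with compound for 30 min, then 6 mM ATP and 400 μM HDAC5tide (both 2× final) were added for 2 h. ADP formed was measured by ADP-Glo Max (2 h reagent, 1 h detection) using luminescence.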
# T1 sequence (Q9H0K1 whole entry, species assumed): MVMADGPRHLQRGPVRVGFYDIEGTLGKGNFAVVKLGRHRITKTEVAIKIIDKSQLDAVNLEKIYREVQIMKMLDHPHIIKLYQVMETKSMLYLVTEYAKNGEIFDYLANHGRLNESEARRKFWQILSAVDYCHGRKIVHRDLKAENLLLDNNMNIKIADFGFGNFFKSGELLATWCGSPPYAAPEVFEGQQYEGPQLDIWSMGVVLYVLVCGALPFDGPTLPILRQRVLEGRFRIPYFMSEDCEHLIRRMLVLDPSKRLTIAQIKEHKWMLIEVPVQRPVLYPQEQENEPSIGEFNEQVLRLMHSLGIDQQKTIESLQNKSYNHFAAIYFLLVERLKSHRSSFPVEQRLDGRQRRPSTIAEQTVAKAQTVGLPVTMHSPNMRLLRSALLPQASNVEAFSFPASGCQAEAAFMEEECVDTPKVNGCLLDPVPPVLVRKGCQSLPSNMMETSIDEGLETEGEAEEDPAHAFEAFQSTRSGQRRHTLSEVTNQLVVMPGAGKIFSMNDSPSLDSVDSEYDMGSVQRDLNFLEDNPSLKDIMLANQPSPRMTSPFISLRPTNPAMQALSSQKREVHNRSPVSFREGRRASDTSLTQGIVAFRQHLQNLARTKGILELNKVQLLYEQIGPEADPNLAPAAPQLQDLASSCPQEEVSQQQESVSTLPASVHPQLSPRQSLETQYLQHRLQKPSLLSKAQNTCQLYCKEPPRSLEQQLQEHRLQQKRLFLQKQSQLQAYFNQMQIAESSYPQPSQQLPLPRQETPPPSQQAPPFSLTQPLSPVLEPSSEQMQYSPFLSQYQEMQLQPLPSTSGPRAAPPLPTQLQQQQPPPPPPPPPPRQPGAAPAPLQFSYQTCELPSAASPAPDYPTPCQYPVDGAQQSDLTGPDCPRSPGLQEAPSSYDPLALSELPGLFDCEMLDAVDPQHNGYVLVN
SMILES,IC50 (SIK2 [1]),pIC50 (SIK2 [2])
"CN1C[C@H]2C[C@@H]1C[C@H]2Oc1cnc(C#N)cc1-c1ccn2nc(NC(=O)C3CC3)cc2c1 [Example 13, N-[5-[2-cyano-5-[[(1R,4R,5R)-2-methyl-2-azabicyclo[2.2.1]heptan-5-yl]oxy]-4-pyridyl]pyrazolo[1,5-a]pyridin-2-yl]cyclopropanecarboxamide]",0.0208 µM,6.52
"Cc1ccnc(Nc2cc3cc(-c4cc(C)ncc4OC[C@@H]4CNCCO4)ccn3n2)c1 [Example 427, 5-[2-methyl-5-[[(2S)-morpholin-2-yl]methoxy]-4-pyridyl]-N-(4-methyl-2-pyridyl)pyrazolo[1,5-a]pyridin-2-amine]",0.0012 µM,7.94
"N#CCN[C@H]1C[C@@H](COc2cnc(C#N)cc2-c2ccn3nc(NC(=O)C4CC4)cc3c2)C1 [Example 596, N-[5-[2-cyano-5-[[3-(cyanomethylamino)cyclobutyl]methoxy]-4-pyridyl]pyrazolo[1,5-a]pyridin-2-yl]cyclopropanecarboxamide]",0.00125 µM,7.84
"CC(=O)N1CCC(Oc2cnc(C#N)cc2-c2ccn3nc(NC(=O)C4CC4)cc3c2)C1 (single isomer, unassigned) [Example 57, (*S)—N-(5-(5-((1-Acetylpyrrolidin-3-yl)oxy)-2-cyanopyridin-4-yl)pyrazolo[1,5-a]pyridin-2-yl)cyclopropanecarboxamide]",0.0103 µM,6.58
"C[C@@](O)(COc1cnc(C#N)cc1-c1ccn2nc(NC(=O)C3CC3)cc2c1)C(F)(F)F (single isomer, unassigned) [Example 49, (*R)—N-(5-(2-Cyano-5-(3,3,3-trifluoro-2-hydroxy-2-methylpropoxy)pyridin-4-yl)pyrazolo[1,5-a]pyridin-2-yl)cyclopropanecarboxamide]",0.000957 µM,7.60
"N#CCN1CC[C@@H](Oc2cnc(C#N)cc2-c2ccn3nc(NC(=O)C4CC4)cc3c2)C1 [Example 113, (R)—N-[5-[2-cyano-5-[(3R)-1-(cyanomethyl)pyrrolidin-3-yl]oxy-4-pyridyl]pyrazolo[1,5-a]pyridin-2-yl]cyclopropanecarboxamide]",0.000393 µM,8.64
"COCCN1CC[C@H](Oc2cnc(C#N)cc2-c2ccn3nc(NC(=O)C4CC4)cc3c2)C1 [Example 108, (S)—N-[5-[2-cyano-5-[(3S)-1-(2-methoxyethyl)pyrrolidin-3-yl]oxy-4-pyridyl]pyrazolo[1,5-a]pyridin-2-yl]cyclopropanecarboxamide]",0.00527 µM,6.69
"Cc1cc(-c2ccn3nc(NC(=O)C4CC4)cc3c2)c(O[C@H]2CC[C@H](O)CC2)cn1 [Example 158, trans-N-[5-[5-(4-hydroxycyclohexoxy)-2-methyl-4-pyridyl]pyrazolo[1,5-a]pyridin-2-yl]cyclopropanecarboxamide]",0.00132 µM,7.74
"N#Cc1cc(-c2ccn3nc(NC(=O)C4CC4)cc3c2)c(OC[C@@H]2C[C@H]3CC[C@@H](C2)N3)cn1 [Example 67, N-[5-[5-[[(1S,5R)-8-azabicyclo[3.2.1]octan-3-yl]methoxy]-2-cyano-4-pyridyl]pyrazolo[1,5-a]pyridin-2-yl]cyclopropanecarboxamide]",0.000631 µM,8.06
"Cc1cc(-c2ccn3nc(NC(=O)C4CC4)cc3c2)c(O[C@@H]2CNC[C@H](C(F)(F)F)C2)cn1 (single isomer, unassigned) [Example 445, N-[5-[2-methyl-5-[[(3*S,5*R)-5-(trifluoromethyl)-3-piperidyl]oxy]-4-pyridyl]pyrazolo[1,5-a]pyridin-2-yl]cyclopropanecarboxamide]",0.00109 µM,7.94
"N#Cc1cc(-c2ccn3nc(NC(=O)C4CC4)cc3c2)c(OC[C@H]2C[C@@H](O)C2)cn1 [Example 68, N-[5-[2-cyano-5-[(3-hydroxycyclobutyl)methoxy]-4-pyridyl]pyrazolo[1,5-a]pyridin-2-yl]cyclopropanecarboxamide]",0.000666 µM,7.62
"N#Cc1cc(-c2ccn3nc(NC(=O)C4CC4)cc3c2)c(OC[C@H]2C[C@@H](N)C2)cn1 [Example 175, N-(5-(5-(((1s,3s)-3-aminocyclobutyl)methoxy)-2-cyanopyridin-4-yl)pyrazolo[1,5-a]pyridin-2-yl)cyclopropanecarboxamide]",0.000443 µM,8.07
"N#Cc1cc(-c2ccn3nc(NC(=O)C4CC4)cc3c2)c(OCc2ccccn2)cn1 [Example 48, N-(5-(2-Cyano-5-(pyridin-2-ylmethoxy)pyridin-4-yl)pyrazolo[1,5-a]pyridin-2-yl)cyclopropanecarboxamide]",0.0109 µM,6.93

# More lines, now with the values ahead:
IC50 (SIK2 [1]),pIC50 (SIK2 [2]),SMILES
0.00124 µM,7.59,"N#Cc1cc(-c2ccn3nc(NC(=O)C4CC4)cc3c2)c(OCC2(N)CCC2)cn1 [Example 44, N-[5-[5-[(1-aminocyclobutyl)methoxy]-2-cyano-4-pyridyl]pyrazolo[1,5-a]pyridin-2-yl]cyclopropanecarboxamide]"
0.00148 µM,7.77,"N#Cc1cc(-c2ccn3nc(NC(=O)C4CC4)cc3c2)c(OC[C@@H]2CCCNC2)cn1 [Example 585, N-[5-[2-cyano-5-[[(3R)-3-piperidyl]methoxy]-4-pyridyl]pyrazolo[1,5-a]pyridin-2-yl]cyclopropanecarboxamide]"
0.000413 µM,> 9.08,"CC1(C)CNC[C@H](COc2ccc(C#N)cc2-c2ccn3nc(NC(=O)C4CC4)cc3c2)O1 [Example 102, N-[5-[5-cyano-2-[[(2R)-6,6-dimethylmorpholin-2-yl]methoxy]phenyl]pyrazolo[1,5-a]pyridin-2-yl]cyclopropanecarboxamide]"
0.000938 µM,7.97,"N#Cc1cc(-c2ccn3nc(NC(=O)C4CC4)cc3c2)c(OCC2CCNCC2)cn1 [Example 43, N-[5-[2-cyano-5-(4-piperidylmethoxy)-4-pyridyl]pyrazolo[1,5-a]pyridin-2-yl]cyclopropanecarboxamide]"
0.00486 µM,6.92,"N#Cc1cc(-c2ccn3nc(NC(=O)C4CC4)cc3c2)c(OC[C@H]2CNCCO2)cn1 [Example 592, N-[5-[2-cyano-5-[[(2R)-morpholin-2-yl]methoxy]-4-pyridyl]pyrazolo[1,5-a]pyridin-2-yl]cyclopropanecarboxamide]"
0.00442 µM,7.30,"C[C@@H](Oc1ccc(C#N)cc1-c1ccn2nc(NC(=O)C3CC3)cc2c1)[C@@H]1CNCCO1 (single isomer, unassigned) [Example 477, (2*R, 1*S)—N-[5-[5-cyano-2-(1-morpholin-2-ylethoxy)phenyl]pyrazolo[1,5-a]pyridin-2-yl]cyclopropanecarboxamide]"
0.00496 µM,6.63,"CN1CC[C@H](COc2cnc(C#N)cc2-c2ccn3nc(NC(=O)C4CC4)cc3c2)C1 [Example 16, (S)—N-(5-(2-cyano-5-((1-methylpyrrolidin-3-yl)methoxy)pyridin-4-yl)pyrazolo[1,5-a]pyridin-2-yl)cyclopropanecarboxamide]"
0.000204 µM,8.56,"N#Cc1cc(-c2ccn3nc(NC(=O)C4CC4)cc3c2)c(O[C@H]2CC[C@@H](O)CC2)cn1 [Example 86, N-(5-(2-cyano-5-(((1s,4s)-4-hydroxycyclohexyl)oxy)pyridin-4-yl)pyrazolo[1,5-a]pyridin-2-yl)cyclopropanecarboxamide]"
